This is an account of results in paper PMC6066186 (Angewandte Chemie (International ed. in English), 2018).

Converted amounts (≈) assume the structure as drawn.

Assay [1] deals with Mtb. Briefly: Growth inhibition. The assay is classed as cell-based, Mycobacterium tuberculosis.
Assay [2] concerns Mtb. Kind of assay: Combination with isoniazid, Mtb growth. It is filed as cell-based, Mycobacterium tuberculosis. The conditions noted are these: 250 nm, in the absence of TQZ.
Assay [3] relates to ATP production through oxidative phosphorylation in membrane vesicles derived from mycobacteria. Briefly: NADH-initiated ATP synthesis in mycobacterial membrane vesicles. The assay is classed as biochemical. The conditions noted are these: read-out: IC50, inhibition of ATP synthesis, NADH added.
The test system of assay [4] is Mtb. The following applies: cited from earlier work.
Assay [5] deals with NADH oxidation in purified membranes. The conditions noted are these: cited from earlier work.

`O=C(CSc1nc2cccc(F)c2c(=O)[nH]1)NC1CCCCC1` [CBR-3465] yielded an MIC in assay [1] of 0.16 µM (≈ 0.0537 µg/mL).

As for `NNC(=O)c1ccncc1` [INH, isoniazid], the “effect on Mtb replication” value in assay [2] is recorded as “completely prevents replication”.

For `COc1nc2ccc(Br)cc2cc1[C@@H](c1ccccc1)[C@@](O)(CCN(C)C)c1cccc2ccccc12` [bedaquiline], the IC50 in assay [3] turned out to be 6.9 nM.

Take `C=C(C)[C@H]1Cc2c(ccc3c2O[C@@H]2COc4cc(OC)c(OC)cc4[C@@H]2C3=O)O1` [rotenone]: the “effect on mycobacterial growth” value in assay [4] is given as “little effect”. Also, in assay [5], the “effect on NADH oxidation” value is recorded as “little effect”.

As usually defined, the MIC is the lowest concentration found to suppress growth. Read a low MIC as a more susceptible organism. As usually defined, the IC50 is the point on the concentration scale where inhibition reaches its midpoint.
